Columns and labels:
Experiment in all cases: Kinase profiling
Format in all cases: biochemical
RET = target: T1, RET (Homo sapiens, UniProt P07949); conditions: read-out: Percent inhibition, RET; for inhibition at 1 µM: Conc 1000 nM
T1 construct: purchased Ambit (KINOMEscan)
Description: (§1) ; Fig. 5a; Supplementary Table 1). We focused on Dyrk1a because other kinases inhibited by aminopyrazine compounds were not highly expressed in β-cells and because Dyrk1a was known to inhibit the NFAT pathway that was previously implicated in β-cell proliferation. We used molecular modelling to dock the aminopyrazine compounds into the published structure of Dyrk1a (protein databank accession code 2vx3.pdb; Fig. 5b).

CHEK1 = target: T2, CHEK1 (Homo sapiens, UniProt O14757); conditions: Conc 1000 nM; read-out: Percent inhibition, CHEK1
T2 construct: purchased Ambit KINOMEscan
Description: as §1

SYK = target: T3, SYK (Homo sapiens, UniProt P43405); conditions: read-out: Percent inhibition, SYK; for inhibition at 1 µM: Conc 1000 nM
T3 construct: purchased Ambit (KINOMEscan)
Description: as §1

Axl = target: T4, Axl (Homo sapiens, UniProt P30530); conditions: read-out: Percent inhibition, Axl; for inhibition at 1 µM: Conc 1000 nM
T4 construct: purchased Ambit KINOMEscan
T4 sequence (P30530 26-894): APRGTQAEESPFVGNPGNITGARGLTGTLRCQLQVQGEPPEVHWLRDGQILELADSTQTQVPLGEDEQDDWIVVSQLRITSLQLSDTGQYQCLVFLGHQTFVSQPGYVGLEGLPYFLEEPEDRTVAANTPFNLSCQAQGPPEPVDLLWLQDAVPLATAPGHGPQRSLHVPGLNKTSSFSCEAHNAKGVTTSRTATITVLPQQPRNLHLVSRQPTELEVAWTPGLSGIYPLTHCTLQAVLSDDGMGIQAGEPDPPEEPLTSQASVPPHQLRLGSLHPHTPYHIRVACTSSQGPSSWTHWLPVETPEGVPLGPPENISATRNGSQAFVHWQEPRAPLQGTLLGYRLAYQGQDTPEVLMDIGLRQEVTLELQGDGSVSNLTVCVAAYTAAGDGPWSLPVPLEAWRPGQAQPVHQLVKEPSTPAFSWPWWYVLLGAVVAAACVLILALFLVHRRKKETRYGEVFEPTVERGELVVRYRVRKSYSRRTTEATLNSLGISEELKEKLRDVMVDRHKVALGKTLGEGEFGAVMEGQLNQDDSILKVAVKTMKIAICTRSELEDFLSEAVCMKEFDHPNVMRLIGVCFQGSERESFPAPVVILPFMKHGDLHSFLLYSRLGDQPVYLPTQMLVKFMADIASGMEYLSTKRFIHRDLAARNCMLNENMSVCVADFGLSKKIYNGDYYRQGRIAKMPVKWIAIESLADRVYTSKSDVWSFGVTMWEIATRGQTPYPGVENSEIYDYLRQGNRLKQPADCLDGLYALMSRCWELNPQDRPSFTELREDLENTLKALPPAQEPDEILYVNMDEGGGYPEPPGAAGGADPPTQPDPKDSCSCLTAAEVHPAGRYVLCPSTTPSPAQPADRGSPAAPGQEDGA
Description: as §1

PDGFRa = target: T5, PDGFRa (Homo sapiens, UniProt P16234); conditions: read-out: Percent inhibition, PDGFRa; for inhibition at 1 µM: Conc 1000 nM
T5 construct: purchased Ambit (KINOMEscan)
Description: as §1

JNK2 = target: T6, JNK2 (Homo sapiens, UniProt P45984); conditions: Conc 1000 nM; read-out: Percent inhibition, JNK2
T6 construct: purchased Ambit KINOMEscan
Description: as §1

p70S6K1 = target: T7, p70S6K1 (Homo sapiens, UniProt P23443); conditions: Conc 1000 nM; read-out: Percent inhibition, p70S6K1
T7 construct: purchased Ambit (KINOMEscan)
Description: as §1

AURORA-B = target: T8, AURORA-B (Homo sapiens, UniProt Q96GD4); conditions: Conc 1000 nM; read-out: Percent inhibition, AURORA-B
T8 construct: purchased Ambit KINOMEscan
Description: as §1

PI3Ka = target: T9, PI3Ka (Homo sapiens, UniProt P42336); conditions: Conc 1000 nM; read-out: Percent inhibition, PI3Ka
T9 construct: purchased Ambit (KINOMEscan)
Description: as §1

NEK2 = target: T10, NEK2 (Homo sapiens, UniProt P51955); conditions: Conc 1000 nM; read-out: Percent inhibition, NEK2
T10 construct: purchased Ambit (KINOMEscan)
Description: as §1

IRAK4 = target: T11, IRAK4 (Homo sapiens, UniProt Q9NWZ3); conditions: Conc 1000 nM; read-out: Percent inhibition, IRAK4
T11 construct: purchased Ambit KINOMEscan
Description: as §1

PLK1 = target: T12, PLK1 (Homo sapiens, UniProt P53350); conditions: Conc 1000 nM; read-out: Percent inhibition, PLK1
T12 construct: purchased Ambit (KINOMEscan)
Description: as §1

SRC = target: T13, SRC (Homo sapiens, UniProt P12931); conditions: Conc 1000 nM; read-out: Percent inhibition, SRC
T13 construct: purchased Ambit (KINOMEscan)
Description: as §1

InsR = target: T14, InsR (Homo sapiens, UniProt P06213); conditions: Conc 1000 nM; read-out: Percent inhibition, InsR
T14 construct: purchased Ambit KINOMEscan
Description: as §1

EGFR = target: T15, EGFR (Homo sapiens, UniProt P00533); conditions: Conc 1000 nM; read-out: Percent inhibition, EGFR
T15 construct: purchased Ambit KINOMEscan
Description: as §1

FMS (CSF1R) = target: T16, FMS (CSF1R) (Homo sapiens, UniProt P07333); conditions: Conc 1000 nM; read-out: Percent inhibition, FMS (CSF1R)
T16 construct: purchased Ambit KINOMEscan
Description: as §1

EphA3 = target: T17, EphA3 (Homo sapiens, UniProt P29320); conditions: Conc 1000 nM; read-out: Percent inhibition, EphA3
T17 construct: purchased Ambit KINOMEscan
Description: as §1

AKT3 = target: T18, AKT3 (Homo sapiens, UniProt Q9Y243); conditions: Conc 1000 nM; read-out: Percent inhibition, AKT3
T18 construct: purchased Ambit KINOMEscan
Description: as §1

LynA = target: T19, LynA (Homo sapiens, UniProt P07948); conditions: Conc 1000 nM; read-out: Percent inhibition, LynA
T19 construct: purchased Ambit (KINOMEscan)
Description: as §1

EphB3 = target: T20, EphB3 (Homo sapiens, UniProt P54753); conditions: Conc 1000 nM; read-out: Percent inhibition, EphB3
T20 construct: purchased Ambit KINOMEscan
Description: as §1

ErbB4 (HER4) = target: T21, ErbB4 (HER4) (Homo sapiens, UniProt Q15303); conditions: Conc 1000 nM; read-out: Percent inhibition, ErbB4 (HER4)
T21 construct: purchased Ambit KINOMEscan
Description: as §1

T1 sequence (P07949 29-1114): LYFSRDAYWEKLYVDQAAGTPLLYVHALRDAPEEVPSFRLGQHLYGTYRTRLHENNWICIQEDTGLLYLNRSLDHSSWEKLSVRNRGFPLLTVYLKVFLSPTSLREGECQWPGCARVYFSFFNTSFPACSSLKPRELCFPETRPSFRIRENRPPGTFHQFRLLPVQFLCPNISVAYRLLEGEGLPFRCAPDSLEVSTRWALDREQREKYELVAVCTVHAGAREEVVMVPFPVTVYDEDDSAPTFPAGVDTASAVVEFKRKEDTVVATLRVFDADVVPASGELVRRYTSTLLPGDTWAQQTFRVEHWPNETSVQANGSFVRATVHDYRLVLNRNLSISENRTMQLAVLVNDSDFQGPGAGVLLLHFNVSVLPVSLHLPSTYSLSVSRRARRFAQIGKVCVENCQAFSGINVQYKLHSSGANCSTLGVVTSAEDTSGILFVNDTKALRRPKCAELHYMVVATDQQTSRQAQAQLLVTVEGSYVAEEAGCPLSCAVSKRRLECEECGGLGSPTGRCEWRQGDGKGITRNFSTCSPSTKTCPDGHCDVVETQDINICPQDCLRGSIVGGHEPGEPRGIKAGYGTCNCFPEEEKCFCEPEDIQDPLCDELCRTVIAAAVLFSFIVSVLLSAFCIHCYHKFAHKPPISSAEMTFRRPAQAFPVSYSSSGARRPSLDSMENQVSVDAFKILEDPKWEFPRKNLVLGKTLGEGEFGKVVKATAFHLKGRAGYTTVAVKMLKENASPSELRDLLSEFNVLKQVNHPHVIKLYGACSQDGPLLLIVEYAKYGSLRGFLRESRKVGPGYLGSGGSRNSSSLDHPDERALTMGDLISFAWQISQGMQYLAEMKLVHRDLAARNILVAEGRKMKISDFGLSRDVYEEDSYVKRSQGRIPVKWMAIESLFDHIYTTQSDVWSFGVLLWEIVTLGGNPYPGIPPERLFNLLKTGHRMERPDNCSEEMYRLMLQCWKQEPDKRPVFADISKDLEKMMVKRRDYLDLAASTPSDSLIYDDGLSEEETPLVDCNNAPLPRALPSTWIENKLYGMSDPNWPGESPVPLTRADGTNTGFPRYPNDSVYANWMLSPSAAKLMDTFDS
T5 sequence (P16234 24-1089): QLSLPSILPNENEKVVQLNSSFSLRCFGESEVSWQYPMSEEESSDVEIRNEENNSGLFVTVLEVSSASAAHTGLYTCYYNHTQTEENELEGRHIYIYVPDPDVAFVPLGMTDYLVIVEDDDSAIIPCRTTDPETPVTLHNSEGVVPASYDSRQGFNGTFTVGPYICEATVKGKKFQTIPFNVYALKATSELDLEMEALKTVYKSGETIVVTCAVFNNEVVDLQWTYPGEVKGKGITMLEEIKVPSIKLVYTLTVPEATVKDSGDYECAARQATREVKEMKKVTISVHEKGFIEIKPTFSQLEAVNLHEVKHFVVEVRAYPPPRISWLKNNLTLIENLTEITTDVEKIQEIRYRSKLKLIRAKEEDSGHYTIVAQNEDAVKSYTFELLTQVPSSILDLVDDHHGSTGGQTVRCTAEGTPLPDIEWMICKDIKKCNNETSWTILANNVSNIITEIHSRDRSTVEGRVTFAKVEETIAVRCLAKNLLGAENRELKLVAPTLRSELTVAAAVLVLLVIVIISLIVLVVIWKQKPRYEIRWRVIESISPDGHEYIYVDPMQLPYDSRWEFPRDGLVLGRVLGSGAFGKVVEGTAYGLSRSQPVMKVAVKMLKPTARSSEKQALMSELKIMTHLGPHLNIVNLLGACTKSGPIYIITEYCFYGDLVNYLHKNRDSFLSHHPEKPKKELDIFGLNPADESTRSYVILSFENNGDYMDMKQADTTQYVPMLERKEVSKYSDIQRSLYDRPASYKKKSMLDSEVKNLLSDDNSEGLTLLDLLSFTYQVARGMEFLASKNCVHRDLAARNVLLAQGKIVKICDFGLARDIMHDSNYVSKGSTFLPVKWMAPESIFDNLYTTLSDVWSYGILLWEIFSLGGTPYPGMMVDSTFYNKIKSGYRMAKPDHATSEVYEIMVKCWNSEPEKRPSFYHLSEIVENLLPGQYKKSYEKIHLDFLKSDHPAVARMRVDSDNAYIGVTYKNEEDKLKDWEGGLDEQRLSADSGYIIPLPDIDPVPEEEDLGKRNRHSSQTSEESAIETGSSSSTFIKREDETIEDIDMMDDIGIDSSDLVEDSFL
T10 sequence (P51955 whole entry): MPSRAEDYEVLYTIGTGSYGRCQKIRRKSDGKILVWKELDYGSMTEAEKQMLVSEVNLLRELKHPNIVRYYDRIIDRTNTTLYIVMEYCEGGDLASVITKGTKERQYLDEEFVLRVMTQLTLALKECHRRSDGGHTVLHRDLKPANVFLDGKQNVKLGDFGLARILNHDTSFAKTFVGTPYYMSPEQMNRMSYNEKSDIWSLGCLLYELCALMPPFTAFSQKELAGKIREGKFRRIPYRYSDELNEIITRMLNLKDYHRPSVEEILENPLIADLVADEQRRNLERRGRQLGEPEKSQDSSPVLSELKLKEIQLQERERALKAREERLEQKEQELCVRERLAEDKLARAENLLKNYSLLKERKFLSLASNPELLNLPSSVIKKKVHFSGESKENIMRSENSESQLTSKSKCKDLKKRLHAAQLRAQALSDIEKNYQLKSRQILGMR
T17 sequence (P29320 21-983): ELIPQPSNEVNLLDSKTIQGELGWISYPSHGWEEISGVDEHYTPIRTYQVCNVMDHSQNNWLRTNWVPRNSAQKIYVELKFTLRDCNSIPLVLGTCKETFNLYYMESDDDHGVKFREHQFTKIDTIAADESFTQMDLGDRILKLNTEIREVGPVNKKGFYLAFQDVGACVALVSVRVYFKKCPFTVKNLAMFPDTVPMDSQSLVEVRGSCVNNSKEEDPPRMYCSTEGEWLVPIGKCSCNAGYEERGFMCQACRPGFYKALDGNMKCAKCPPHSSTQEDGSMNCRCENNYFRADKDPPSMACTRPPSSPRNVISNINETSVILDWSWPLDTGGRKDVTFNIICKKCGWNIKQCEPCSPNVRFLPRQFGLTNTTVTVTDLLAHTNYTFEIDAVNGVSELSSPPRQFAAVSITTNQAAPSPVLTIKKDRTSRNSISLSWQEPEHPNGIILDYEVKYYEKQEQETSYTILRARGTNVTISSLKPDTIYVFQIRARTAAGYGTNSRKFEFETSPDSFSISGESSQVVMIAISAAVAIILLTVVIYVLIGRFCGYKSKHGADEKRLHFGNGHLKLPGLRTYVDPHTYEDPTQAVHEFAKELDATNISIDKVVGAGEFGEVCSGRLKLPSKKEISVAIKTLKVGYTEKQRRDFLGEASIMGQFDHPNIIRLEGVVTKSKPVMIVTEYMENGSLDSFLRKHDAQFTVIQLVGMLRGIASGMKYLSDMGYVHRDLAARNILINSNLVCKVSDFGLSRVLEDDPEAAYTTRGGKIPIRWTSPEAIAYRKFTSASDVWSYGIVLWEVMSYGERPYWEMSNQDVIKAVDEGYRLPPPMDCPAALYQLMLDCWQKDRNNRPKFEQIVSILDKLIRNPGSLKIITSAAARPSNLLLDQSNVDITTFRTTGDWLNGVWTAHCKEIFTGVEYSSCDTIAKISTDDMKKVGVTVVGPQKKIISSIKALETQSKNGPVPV
T13 sequence (P12931 whole entry): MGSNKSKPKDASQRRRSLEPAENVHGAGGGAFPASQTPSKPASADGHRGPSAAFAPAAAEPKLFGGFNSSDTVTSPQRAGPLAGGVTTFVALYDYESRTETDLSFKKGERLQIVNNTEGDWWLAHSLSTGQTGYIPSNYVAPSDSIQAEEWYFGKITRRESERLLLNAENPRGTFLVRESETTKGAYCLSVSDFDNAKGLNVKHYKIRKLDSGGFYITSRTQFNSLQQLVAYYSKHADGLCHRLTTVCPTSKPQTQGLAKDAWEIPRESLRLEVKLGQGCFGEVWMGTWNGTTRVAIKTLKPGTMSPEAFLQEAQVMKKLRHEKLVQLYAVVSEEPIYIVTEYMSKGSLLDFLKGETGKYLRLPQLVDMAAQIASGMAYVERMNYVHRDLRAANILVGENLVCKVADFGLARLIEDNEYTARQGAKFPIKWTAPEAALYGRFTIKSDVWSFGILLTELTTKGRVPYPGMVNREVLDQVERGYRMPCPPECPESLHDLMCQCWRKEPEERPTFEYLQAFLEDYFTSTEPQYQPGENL
T18 sequence (Q9Y243 whole entry): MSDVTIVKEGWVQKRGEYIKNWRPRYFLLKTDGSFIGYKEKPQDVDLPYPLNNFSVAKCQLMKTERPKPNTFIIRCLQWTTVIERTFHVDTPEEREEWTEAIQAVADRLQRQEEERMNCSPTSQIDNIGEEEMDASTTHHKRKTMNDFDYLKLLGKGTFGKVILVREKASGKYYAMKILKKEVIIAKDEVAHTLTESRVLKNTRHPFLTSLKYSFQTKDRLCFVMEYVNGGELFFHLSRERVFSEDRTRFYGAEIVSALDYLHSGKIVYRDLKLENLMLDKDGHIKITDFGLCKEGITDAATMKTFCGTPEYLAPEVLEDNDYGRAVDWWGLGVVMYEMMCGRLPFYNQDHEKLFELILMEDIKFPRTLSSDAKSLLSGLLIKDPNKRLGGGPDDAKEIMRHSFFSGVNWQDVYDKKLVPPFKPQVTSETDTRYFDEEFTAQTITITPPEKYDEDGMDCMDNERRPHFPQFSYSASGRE
T6 sequence (P45984 whole entry): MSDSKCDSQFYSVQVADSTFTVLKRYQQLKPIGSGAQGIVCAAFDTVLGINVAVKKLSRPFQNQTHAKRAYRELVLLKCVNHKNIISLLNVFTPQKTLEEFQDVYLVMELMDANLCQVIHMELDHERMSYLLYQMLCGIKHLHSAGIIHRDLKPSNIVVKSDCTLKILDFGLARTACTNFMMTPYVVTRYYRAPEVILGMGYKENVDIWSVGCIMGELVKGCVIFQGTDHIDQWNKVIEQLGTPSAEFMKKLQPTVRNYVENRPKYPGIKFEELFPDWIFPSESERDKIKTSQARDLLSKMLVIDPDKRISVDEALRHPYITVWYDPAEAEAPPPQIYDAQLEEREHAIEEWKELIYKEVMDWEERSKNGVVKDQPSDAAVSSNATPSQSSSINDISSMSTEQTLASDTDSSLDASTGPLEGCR

Structure (SMILES)	inhibition at 1 µM (RET) [%]	inhibition at 1 µM (CHEK1) [%]	inhibition at 1 µM (SYK) [%]	inhibition at 1 µM (Axl) [%]	inhibition at 1 µM (PDGFRa) [%]	inhibition at 1 µM (JNK2) [%]	inhibition at 1 µM (p70S6K1) [%]	inhibition at 1 µM (AURORA-B) [%]	inhibition at 1 µM (PI3Ka) [%]	inhibition at 1 µM (NEK2) [%]	inhibition at 1 µM (IRAK4) [%]	inhibition at 1 µM (PLK1) [%]	inhibition at 1 µM (SRC) [%]	inhibition at 1 µM (InsR) [%]	inhibition at 1 µM (EGFR) [%]	inhibition at 1 µM (FMS (CSF1R)) [%]	inhibition at 1 µM (EphA3) [%]	inhibition at 1 µM (AKT3) [%]	inhibition at 1 µM (LynA) [%]	inhibition at 1 µM (EphB3) [%]	other results
CC(C)Oc1ccc(F)c(-c2cnc(N)c(C(=O)Nc3cnccc3N3CCC[C@@H](C(=O)O)C3)n2)c1 [GNF4877]	96	43	95	94	88	51	75	49	31	0	52	22	64	51	44	72	63	25	54	28	inhibition at 0.2 µM (RET; Conc 200 nM): 26%; inhibition at 0.2 µM (SYK; Conc 200 nM): 89%; inhibition at 0.2 µM (Axl; Conc 200 nM): 74%; inhibition at 0.2 µM (PDGFRa; Conc 200 nM): 0%; inhibition at 1 µM (ErbB4 (HER4)): 54%
Nc1ncc(-c2ccccc2)nc1C(=O)Nc1cnccc1N1CCC(C(=O)O)CC1 [GNF7156]	98	12	93	88	78	68	50	52	2	3	25	85	61	24	71	78	82	7	56	12	inhibition at 1 µM (ErbB4 (HER4)): 36%
